Measurements reported in patent US20100311729A1, “Substituted imidazopyridazines and pyrrolopyrimidines as lipid kinase inhibitors” (priority 2007, published 2010).
Blank lines part the entries; values can stand above or below the compound they belong to.

Key:
Type in all cases: biochemical
PI3K alfa = molecular target: T1, PI3K alfa (Homo sapiens, UniProt P42336); test: PI3 kinase assay (Kinase-Glo luminescence), PI3K alfa; details: Enzymatic Data; read-out: PI3K alfa IC50 [umol]
T1 construct: for the p110-a subunit (with a deletion of the first 20 amino acids); His tag (C); made in house; host or cells: baculovirus; Tn5 (Trichoplusia ni) or TiniPro insect cells
Procedure, shortened: (§1)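 Recombinant PI3K constructs (alfa 10 nM, delta 10 nM, gamma 150 nM) with 1 μM ATP and 10 μg/mL phosphatidylinositol in Tris pH 7.5, MgCl2, NaCl, CHAPS, DTT; 60 min (alfa, delta) or 120 min (gamma) at room temperature. ATP depletion read by Kinase-Glo luminescence; IC50 from 4-parameter logistic fit over 8 concentrations.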

PI3K delta = molecular target: T2, PI3K delta (Homo sapiens, UniProt O00329); test: PI3 kinase assay (Kinase-Glo luminescence), PI3K delta; details: Enzymatic Data; read-out: PI3K delta IC50 [umol]
T2 construct: for the full-length p110-d subunit are generated and fused by overlapping PCR; His tag (C); made in house; host or cells: baculovirus; Tn5 (Trichoplusia ni) or TiniPro insect cells
Procedure, shortened: as §1

PI3K gamma = molecular target: T3, PI3K gamma (Homo sapiens, UniProt P48736); test: PI3 kinase assay (Kinase-Glo luminescence), PI3K gamma; details: Enzymatic Data; read-out: PI3K gamma IC50 [umol]
T3 construct: PI3Kγ BV-950 p110g(D144aa)-C-Term His Tag; His tag (C); made in house; host or cells: construct from the Roger Williams lab (MRC LMB) in pVL1393; baculovirus; Tn5 (Trichoplusia ni) or TiniPro insect cells
Procedure, shortened: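 Percent inhibition at eight concentrations (typically 10 to 0.003 […]) fitted to a four-parameter logistic model to give IC50. Reaction initiated with ATP; final ATP 1 μM and phosphatidylinositol 10 μg/mL; ATP consumption read by Kinase-Glo luminescence.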

PI3K beta = molecular target: T4, PI3K beta (Homo sapiens, UniProt P42338); test: PI3 kinase assay (Kinase-Glo luminescence), PI3K beta; details: Enzymatic Data; read-out: PI3K beta IC50 [umol]
T4 construct: for the full-length p110-b subunit are generated and fused by overlapping PCR; His tag (C); made in house; host or cells: baculovirus; Tn5 (Trichoplusia ni) or TiniPro insect cells
Procedure, shortened: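 PI3Kβ (25 nM, BV-949) with 10 μg/mL phosphatidylinositol in Tris pH 7.5/MgCl2/NaCl/CHAPS/DTT buffer; reaction started with 1 μM ATP, 60 min at room temperature. ATP depletion read by Kinase-Glo luminescence; 8-point dilutions, IC50 by four-parameter logistic fit.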

T3 sequence (P48736 144-1102 limits assumed): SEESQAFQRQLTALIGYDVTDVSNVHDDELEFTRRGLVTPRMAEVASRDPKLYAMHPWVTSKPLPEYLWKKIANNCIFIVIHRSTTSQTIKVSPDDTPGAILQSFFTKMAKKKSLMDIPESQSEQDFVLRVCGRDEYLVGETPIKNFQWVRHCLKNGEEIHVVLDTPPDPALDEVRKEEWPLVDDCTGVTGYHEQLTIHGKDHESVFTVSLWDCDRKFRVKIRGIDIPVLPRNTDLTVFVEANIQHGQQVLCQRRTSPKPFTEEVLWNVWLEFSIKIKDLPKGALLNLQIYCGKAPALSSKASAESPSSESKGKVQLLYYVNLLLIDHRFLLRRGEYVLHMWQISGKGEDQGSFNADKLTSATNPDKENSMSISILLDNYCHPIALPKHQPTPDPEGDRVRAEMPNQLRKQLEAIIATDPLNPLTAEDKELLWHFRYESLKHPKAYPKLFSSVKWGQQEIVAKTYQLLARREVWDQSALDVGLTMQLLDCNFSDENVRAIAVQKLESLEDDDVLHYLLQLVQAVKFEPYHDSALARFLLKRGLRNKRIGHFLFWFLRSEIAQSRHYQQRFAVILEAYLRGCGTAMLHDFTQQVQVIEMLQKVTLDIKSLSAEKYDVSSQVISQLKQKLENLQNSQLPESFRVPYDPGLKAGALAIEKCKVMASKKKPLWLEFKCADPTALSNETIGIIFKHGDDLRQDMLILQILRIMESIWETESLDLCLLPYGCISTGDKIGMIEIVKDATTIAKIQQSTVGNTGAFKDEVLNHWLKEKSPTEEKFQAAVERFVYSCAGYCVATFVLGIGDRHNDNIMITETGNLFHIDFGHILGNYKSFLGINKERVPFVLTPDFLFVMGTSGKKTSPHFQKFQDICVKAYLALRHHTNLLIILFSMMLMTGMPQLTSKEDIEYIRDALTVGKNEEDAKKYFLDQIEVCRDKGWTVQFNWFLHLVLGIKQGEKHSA
T4 sequence (P42338 with tags, fused parts or gaps limits assumed): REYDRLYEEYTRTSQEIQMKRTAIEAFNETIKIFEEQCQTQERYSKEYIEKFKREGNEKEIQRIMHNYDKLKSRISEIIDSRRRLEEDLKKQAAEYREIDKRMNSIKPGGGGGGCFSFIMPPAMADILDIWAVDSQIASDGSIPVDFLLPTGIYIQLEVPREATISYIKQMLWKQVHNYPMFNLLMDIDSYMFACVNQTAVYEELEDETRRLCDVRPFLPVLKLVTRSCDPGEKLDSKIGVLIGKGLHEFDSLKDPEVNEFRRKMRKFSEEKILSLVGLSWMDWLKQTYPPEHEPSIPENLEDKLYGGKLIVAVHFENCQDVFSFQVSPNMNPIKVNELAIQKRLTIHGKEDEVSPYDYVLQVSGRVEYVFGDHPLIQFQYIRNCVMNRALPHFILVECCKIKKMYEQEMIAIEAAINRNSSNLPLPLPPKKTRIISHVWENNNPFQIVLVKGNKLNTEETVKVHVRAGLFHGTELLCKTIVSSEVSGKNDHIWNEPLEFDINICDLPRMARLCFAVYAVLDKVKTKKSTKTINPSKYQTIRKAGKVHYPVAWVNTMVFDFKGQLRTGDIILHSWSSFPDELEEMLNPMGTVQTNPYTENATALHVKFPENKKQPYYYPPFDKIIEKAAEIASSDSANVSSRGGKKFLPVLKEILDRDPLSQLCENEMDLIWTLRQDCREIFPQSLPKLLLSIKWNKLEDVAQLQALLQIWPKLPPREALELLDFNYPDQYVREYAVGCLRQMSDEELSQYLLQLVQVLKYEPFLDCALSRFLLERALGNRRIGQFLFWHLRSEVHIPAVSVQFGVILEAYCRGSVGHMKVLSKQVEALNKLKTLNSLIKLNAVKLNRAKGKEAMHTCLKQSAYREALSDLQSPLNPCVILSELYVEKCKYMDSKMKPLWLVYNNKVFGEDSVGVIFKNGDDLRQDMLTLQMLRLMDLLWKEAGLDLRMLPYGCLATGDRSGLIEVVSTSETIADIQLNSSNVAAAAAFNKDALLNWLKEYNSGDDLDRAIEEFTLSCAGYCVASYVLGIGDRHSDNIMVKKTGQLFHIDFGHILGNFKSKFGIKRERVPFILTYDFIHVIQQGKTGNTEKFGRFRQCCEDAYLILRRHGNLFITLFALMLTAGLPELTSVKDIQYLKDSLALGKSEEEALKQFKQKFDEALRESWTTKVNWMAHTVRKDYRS
T1 sequence (P42336 with tags, fused parts or gaps limits assumed): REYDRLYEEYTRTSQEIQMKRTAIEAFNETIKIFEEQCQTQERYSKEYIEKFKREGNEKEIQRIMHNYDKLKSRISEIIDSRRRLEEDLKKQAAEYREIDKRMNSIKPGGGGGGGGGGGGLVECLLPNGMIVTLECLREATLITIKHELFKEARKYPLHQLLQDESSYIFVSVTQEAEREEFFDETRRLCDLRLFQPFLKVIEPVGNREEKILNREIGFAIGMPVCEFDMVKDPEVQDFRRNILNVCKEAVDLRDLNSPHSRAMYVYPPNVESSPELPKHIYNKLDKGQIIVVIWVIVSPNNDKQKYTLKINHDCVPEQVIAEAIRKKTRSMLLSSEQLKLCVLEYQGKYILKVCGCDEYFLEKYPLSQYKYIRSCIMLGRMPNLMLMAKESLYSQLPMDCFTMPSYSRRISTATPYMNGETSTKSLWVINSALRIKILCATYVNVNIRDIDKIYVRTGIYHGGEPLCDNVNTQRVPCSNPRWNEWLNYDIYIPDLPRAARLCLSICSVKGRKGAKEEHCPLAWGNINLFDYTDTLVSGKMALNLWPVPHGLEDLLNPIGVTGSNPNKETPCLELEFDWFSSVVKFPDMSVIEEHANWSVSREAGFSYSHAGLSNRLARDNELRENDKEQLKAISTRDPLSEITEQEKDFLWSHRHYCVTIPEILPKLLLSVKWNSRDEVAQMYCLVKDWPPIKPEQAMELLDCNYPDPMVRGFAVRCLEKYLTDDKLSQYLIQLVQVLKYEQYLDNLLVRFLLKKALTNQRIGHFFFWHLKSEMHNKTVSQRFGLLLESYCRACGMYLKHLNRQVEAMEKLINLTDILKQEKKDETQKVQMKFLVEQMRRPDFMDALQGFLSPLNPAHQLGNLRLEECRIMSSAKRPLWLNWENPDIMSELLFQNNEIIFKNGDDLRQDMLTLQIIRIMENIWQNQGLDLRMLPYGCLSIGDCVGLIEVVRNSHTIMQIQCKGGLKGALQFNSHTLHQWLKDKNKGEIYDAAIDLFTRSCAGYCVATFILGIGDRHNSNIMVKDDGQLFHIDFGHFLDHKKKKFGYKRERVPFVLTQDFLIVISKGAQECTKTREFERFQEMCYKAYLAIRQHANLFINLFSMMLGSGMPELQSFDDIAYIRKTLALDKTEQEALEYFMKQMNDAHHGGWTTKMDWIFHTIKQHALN
T2 sequence (O00329 with tags, fused parts or gaps limits assumed): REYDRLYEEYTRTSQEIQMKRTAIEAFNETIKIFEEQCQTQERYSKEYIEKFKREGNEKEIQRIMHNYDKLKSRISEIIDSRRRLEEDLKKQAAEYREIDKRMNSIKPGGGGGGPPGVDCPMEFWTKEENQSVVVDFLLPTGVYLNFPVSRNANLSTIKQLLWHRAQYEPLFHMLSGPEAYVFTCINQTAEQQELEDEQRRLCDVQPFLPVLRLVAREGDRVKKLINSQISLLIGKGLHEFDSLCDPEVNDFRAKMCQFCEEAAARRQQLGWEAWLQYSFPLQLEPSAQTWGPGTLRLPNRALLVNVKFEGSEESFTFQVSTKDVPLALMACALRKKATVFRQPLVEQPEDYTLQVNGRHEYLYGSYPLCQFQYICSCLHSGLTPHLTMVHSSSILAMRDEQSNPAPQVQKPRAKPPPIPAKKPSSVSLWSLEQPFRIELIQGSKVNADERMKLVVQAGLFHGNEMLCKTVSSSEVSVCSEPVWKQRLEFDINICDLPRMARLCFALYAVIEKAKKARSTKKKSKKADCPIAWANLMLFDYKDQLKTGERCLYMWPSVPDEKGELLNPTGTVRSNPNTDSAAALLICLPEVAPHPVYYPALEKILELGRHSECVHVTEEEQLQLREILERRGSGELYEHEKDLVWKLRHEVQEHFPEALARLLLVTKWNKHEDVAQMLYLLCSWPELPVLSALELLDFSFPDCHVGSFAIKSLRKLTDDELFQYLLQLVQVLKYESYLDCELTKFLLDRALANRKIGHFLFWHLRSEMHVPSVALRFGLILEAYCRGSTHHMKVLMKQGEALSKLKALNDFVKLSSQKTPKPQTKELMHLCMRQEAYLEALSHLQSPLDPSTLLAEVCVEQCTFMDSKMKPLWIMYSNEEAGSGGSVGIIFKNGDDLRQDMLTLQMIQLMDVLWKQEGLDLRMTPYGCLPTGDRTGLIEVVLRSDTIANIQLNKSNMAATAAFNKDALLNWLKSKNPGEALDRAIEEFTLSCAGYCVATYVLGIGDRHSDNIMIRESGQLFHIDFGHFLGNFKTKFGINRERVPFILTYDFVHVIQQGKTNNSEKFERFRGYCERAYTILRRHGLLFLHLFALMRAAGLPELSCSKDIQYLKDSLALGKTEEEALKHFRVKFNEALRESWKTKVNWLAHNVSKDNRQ

Compound: O=C1CCCN1CCOc1ccc(-c2ccc3ncc(-c4cnc5[nH]ccc5c4)n3n2)cc1 [Example 98, 1-(2-{4-[3-(1H-Pyrrolo[2,3-b]pyridin-5-yl)-imidazo [1,2-b]pyridazin-6-yl]-phenoxy}-ethyl)-pyrrolidin-2-one]
IC50 (PI3K alfa): 28 nM | IC50 (PI3K delta): 120 nM | IC50 (PI3K gamma): 2210 nM | IC50 (PI3K beta): 2940 nM

Compound: Nc1ncc(-c2ccc3ncc(-c4ccc(C(=O)NCCCN5CCOCC5)c(F)c4)n3n2)cc1C(F)(F)F [Example 100, 4-[6-(6-Amino-5-trifluoro-methyl-pyridin-3-yl)-imidazo [1,2-b]pyridazin-3-yl]-2-fluoro-N-(3-morpholin-4-yl-propyl)-benzamide]
IC50 (PI3K alfa): 24 nM | IC50 (PI3K delta): 26 nM | IC50 (PI3K gamma): 419 nM | IC50 (PI3K beta): 94 nM

Compound: Nc1ncc(-c2ccc3ncc(-c4ccc(S(=O)(=O)N5CCOCC5)cc4)n3n2)cc1C(F)(F)F [Example 102, 5-{3-[4-(Morpholine-4-sulfonyl)-phenyl]-imidazo[1,2-b]pyridazin-6-yl}-3-trifluoromethyl-pyridin-2-ylamine]
IC50 (PI3K alfa): 43 nM | IC50 (PI3K delta): 17 nM | IC50 (PI3K gamma): 1060 nM | IC50 (PI3K beta): 1270 nM

Compound: COc1cc(-c2ccc3ncc(-c4cnc(N)c(C(F)(F)F)c4)n3n2)ccc1OCCN1CCCC1=O [Example 103, 1-(2-{4-[3-(6-Amino-5-trifluoro-methyl-pyridin-3-yl)-imidazo [1,2-b]pyridazin-6-yl]-2-methoxy-phenoxy}-ethyl)-pyrrolidin-2-one]
IC50 (PI3K alfa): 4 nM | IC50 (PI3K delta): 11 nM | IC50 (PI3K gamma): 573 nM | IC50 (PI3K beta): 134 nM

Compound: C=CS(=O)(=O)c1ccc(-c2cnc3ccc(-c4cnc(N)c(C(F)(F)F)c4)nn23)cc1 [Example 104, 5-[3-(4-Ethene-sulfonyl-phenyl)-imidazo [1,2-b]pyridazin-6-yl]-3-trifluoro-methyl-pyridin-2-ylamine]
IC50 (PI3K alfa): 27 nM | IC50 (PI3K delta): 21 nM | IC50 (PI3K gamma): 1420 nM | IC50 (PI3K beta): 143 nM

Compound: Nc1ncc(-c2ccc3ncc(-c4ccc(S(=O)(=O)CCN5CCOCC5)cc4)n3n2)cc1C(F)(F)F [Example 105, 5-{3-[4-(2-Morpholin-4-yl-ethane-sulfonyl)-phenyl]-imidazo [1,2-b]pyridazin-6-yl}-3-trifluoro-methyl-pyridin-2-ylamine]
IC50 (PI3K alfa): 24 nM | IC50 (PI3K delta): 18 nM | IC50 (PI3K gamma): 362 nM | IC50 (PI3K beta): 463 nM

Compound: CCN(CC)CCNC(=O)c1ccc(-c2cnc3ccc(-c4cnc(N)c(C(F)(F)F)c4)nn23)cc1F [Example 108, 4-[6-(6-Amino-5-trifluoro-methyl-pyridin-3-yl)-imidazo [1,2-b]pyridazin-3-yl]-N-(2-diethyl-amino-ethyl)-2-fluoro-benzamide]
IC50 (PI3K alfa): 91 nM | IC50 (PI3K delta): 142 nM | IC50 (PI3K gamma): 565 nM | IC50 (PI3K beta): 575 nM

Compound: COc1cc(-c2cnc3ccc(-c4cnc(N)c(C(F)(F)F)c4)nn23)ccc1C(=O)O [Example 109, 4-[6-(6-Amino-5-trifluoromethyl-pyridin-3-yl)-imidazo [1,2-b]pyridazin-3-yl]-2-methoxy-benzoic acid]
IC50 (PI3K alfa): 6 nM | IC50 (PI3K delta): 10 nM | IC50 (PI3K gamma): 405 nM | IC50 (PI3K beta): 62 nM

Compound: COc1cc(-c2ccc3ncc(-c4cnc5[nH]ccc5c4)n3n2)ccc1OCCN1CCCC1=O [Example 110, 1-(2-{2-Methoxy-4-[3-(1H-pyrrolo [2,3-b]pyridin-5-yl)-imidazo [1,2-b]pyridazin-6-yl]-phenoxy}-ethyl)-pyrrolidin-2-one]
IC50 (PI3K alfa): 40 nM | IC50 (PI3K delta): 77 nM | IC50 (PI3K gamma): 1370 nM | IC50 (PI3K beta): 1180 nM

Compound: COc1cc(-c2ccc3ncc(-c4ccc(S(=O)(=O)CCN5CCOCC5)cc4)n3n2)ccc1OCCN1CCCC1=O [Example 111, 1-[2-(2-Methoxy-4-{3-[4-(2-morpholin-4-yl-ethane-sulfonyl)-phenyl]-imidazo [1,2-b]pyridazin-6-yl}-phenoxy)-ethyl]-pyrrolidin-2-one]
IC50 (PI3K alfa): 954 nM | IC50 (PI3K delta): 427 nM | IC50 (PI3K gamma): > 9100 nM | IC50 (PI3K beta): 7550 nM

Compound: COc1cc(-c2cnc3ccc(-c4cnc(N)c(C(F)(F)F)c4)nn23)ccc1C(=O)NCCN1CCOCC1 [Example 115, 4-[6-(6-Amino-5-trifluoro-methyl-pyridin-3-yl)-imidazo [1,2-b]pyridazin-3-yl]-2-methoxy-N-(2-morpholin-4-yl-ethyl)-benzamide]
IC50 (PI3K alfa): 9 nM | IC50 (PI3K delta): 22 nM | IC50 (PI3K gamma): 397 nM | IC50 (PI3K beta): 78 nM

The next lines start with the values.

IC50 (PI3K alfa): 9 nM | IC50 (PI3K delta): 15 nM | IC50 (PI3K gamma): 584 nM | IC50 (PI3K beta): 82 nM
Compound: Nc1ncc(-c2ccc3ncc(-c4ccc(C(=O)NCCN5CCOCC5)c(F)c4)n3n2)cc1C(F)(F)F [Example 99, 4-[6-(6-Amino-5-trifluoro-methyl-pyridin-3-yl)-imidazo [1,2-b]pyridazin-3-yl]-2-fluoro-N-(2-morpholin-4-yl-ethyl)-benzamide]

IC50 (PI3K alfa): 8 nM | IC50 (PI3K delta): 30 nM | IC50 (PI3K gamma): 1170 nM | IC50 (PI3K beta): 168 nM
Compound: Nc1ncc(-c2ccc3ncc(-c4ccc(C(=O)N5CCN(Cc6ccccn6)CC5)c(F)c4)n3n2)cc1C(F)(F)F [Example 101, {4-[6-(6-Amino-5-trifluoro-methyl-pyridin-3-yl)-imidazo [1,2-b]pyridazin-3-yl]-2-fluoro-phenyl}-(4-pyridin-2-ylmethyl-piperazin-1-yl)-methanone]

IC50 (PI3K alfa): 171 nM | IC50 (PI3K delta): 291 nM | IC50 (PI3K gamma): 788 nM | IC50 (PI3K beta): > 9100 nM
Compound: Nc1ncc(-c2ccc3ncc(-c4ccc(C(=O)N5CCN(CCN6CCOCC6)CC5)c(F)c4)n3n2)cc1C(F)(F)F [Example 106, {4-[6-(6-Amino-5-trifluoro-methyl-pyridin-3-yl)-imidazo [1,2-b]pyridazin-3-yl]-2-fluoro-phenyl}-[4-(2-morpholin-4-yl-ethyl)-piperazin-1-yl]-methanone]

IC50 (PI3K alfa): 26 nM | IC50 (PI3K delta): 30 nM | IC50 (PI3K gamma): 827 nM | IC50 (PI3K beta): 497 nM
Compound: CN(C)CCN1CCN(C(=O)c2ccc(-c3cnc4ccc(-c5cnc(N)c(C(F)(F)F)c5)nn34)cc2F)CC1 [Example 107, {4-[6-(6-Amino-5-trifluoro-methyl-pyridin-3-yl)-imidazo [1,2-b]pyridazin-3-yl]-2-fluoro-phenyl}-[4-(2-dimethyl-amino-ethyl)-piperazin-1-yl]-methanone]

IC50 (PI3K alfa): 12 nM | IC50 (PI3K delta): 14 nM | IC50 (PI3K gamma): 956 nM | IC50 (PI3K beta): 623 nM
Compound: Nc1ncc(-c2ccc3ncc(-c4ccc(C(=O)N5CCN(Cc6cccnc6)CC5)c(F)c4)n3n2)cc1C(F)(F)F [Example 112, {4-[6-(6-Amino-5-trifluoro-methyl-pyridin-3-yl)-imidazo [1,2-b]pyridazin-3-yl]-2-fluoro-phenyl}-(4-pyridin-3-ylmethyl-piperazin-1-yl)-methanone]

IC50 (PI3K alfa): 11 nM | IC50 (PI3K delta): 13 nM | IC50 (PI3K gamma): 555 nM | IC50 (PI3K beta): 68 nM
Compound: Nc1ncc(-c2ccc3ncc(-c4ccc(C(=O)N5CCN(CCO)CC5)c(F)c4)n3n2)cc1C(F)(F)F [Example 113, {4-[6-(6-Amino-5-trifluoro-methyl-pyridin-3-yl)-imidazo [1,2-b]pyridazin-3-yl]-2-fluoro-phenyl}-[4-(2-hydroxy-ethyl)-piperazin-1-yl]-methanone]

IC50 (PI3K alfa): 140 nM | IC50 (PI3K delta): 829 nM | IC50 (PI3K gamma): 1440 nM | IC50 (PI3K beta): 4070 nM
Compound: Nc1ncc(-c2ccc3ncc(-c4ccc(C(=O)N5CCN(Cc6ccc(F)cc6)CC5)c(F)c4)n3n2)cc1C(F)(F)F [Example 114, {4-[6-(6-Amino-5-trifluoromethyl-pyridin-3-yl)-imidazo [1,2-b]pyridazin-3-yl]-2-fluoro-phenyl}-[4-(4-fluoro-benzyl)-piperazin-1-yl]-methanone]

IC50 (PI3K alfa): 3 nM | IC50 (PI3K delta): 4 nM | IC50 (PI3K gamma): 410 nM | IC50 (PI3K beta): 42 nM
Compound: COc1cc(-c2cnc3ccc(-c4cnc(N)c(C(F)(F)F)c4)nn23)ccc1C(=O)N1CCN(Cc2ccccn2)CC1 [Example 116, {4-[6-(6-Amino-5-trifluoro-methyl-pyridin-3-yl)-imidazo [1,2-b]pyridazin-3-yl]-2-methoxy-phenyl}-(4-pyridin-2-ylmethyl-piperazin-1-yl)-methanone]

IC50 (PI3K alfa): 9 nM | IC50 (PI3K delta): 10 nM | IC50 (PI3K gamma): 446 nM | IC50 (PI3K beta): 217 nM
Compound: COc1cc(-c2cnc3ccc(-c4cnc(N)c(C(F)(F)F)c4)nn23)ccc1C(=O)N1CCN(Cc2cccnc2)CC1 [Example 117, {4-[6-(6-Amino-5-trifluoro-methyl-pyridin-3-yl)-imidazo [1,2-b]pyridazin-3-yl]-2-methoxy-phenyl}-(4-pyridin-3-ylmethyl-piperazin-1-yl)-methanone]
